Bridges are numbered along the chain shown (N, C = ends). Where no end group is shown, it is not given here.
Experiments:
BRIN-BD11 cells [1] = assay: Intracellular calcium ([Ca2+]i), FLIPR calcium assay kit; format: cell-based, rat; details: 1 μM peptide, 5 min; mean ± SEM, n = 8
Description: (§1) Effects of esculentin-2CHa (1 μM) and its analogues on membrane potential and [Ca^2+]i in BRIN-BD11 cells over a period of 5 min were assessed using commercially available FLIPR membrane or calcium assay kit (Molecular Devices, USA) as previously described. Data were captured using a Flexstation 3 microplate reader equipped with automatic fluid transfer unit (Molecular Devices, USA).

BRIN-BD11 cells [2] = details: 3 μM peptide (highest concentration); mean ± SEM, n = 8
Description: In vitro insulin-releasing effects of esculentin-2CHa and its analogues were assessed using BRIN-BD11 rat clonal β-cells and mouse islets. In the first set of experiments, BRIN-BD11 cells were incubated with the peptides in the concentration range (1 pM– 3 μM) in Krebs-Ringer bicarbonate buffer containing 5.6 mM glucose for 20 min at 37°C as previously described. Insulin-releasing effects were also assessed using buffer supplemented with 1.4 and 16.7mm glucose concentrations and with established modulators of insulin release as previously described. In a second set of experiments, islets from NIH Swiss mice, isolated by collagenase digestion, were incubated with a range of concentrations of esculentin-2CHa or its analogues (0.1 nM– 1 μM) for 1 h in Krebs-Ringer bicarbonate (KRB) buffer supplemented with 1.4, 5.6 or 16.7 mM glucose. Following test incubations, aliquots of buffer were retrieved and stored at -20°C for measurement of insulin by radioimmunoassay. In the experiments with BRIN-BD11 cells, the release of lactate dehydrogenase (LDH) was measured as an indicator of the integrity of the plasma membrane using commercially available CytoTox 96 non-radioactive cytotoxicity assay kit (Promega, Madison, WI, USA) according to the manufacturer’s recommended protocol.

[3] = tested on: BRIN-BD11 rat clonal β-cells; assay: In vitro insulin release from BRIN-BD11 cells; format: cell-based; details: 5.6 mM glucose
Description: (§4) In vitro insulin-releasing effects of esculentin-2CHa and its analogues were assessed using BRIN-BD11 rat clonal β-cells and mouse islets. In the first set of experiments, BRIN-BD11 cells were incubated with the peptides in the concentration range (1 pM– 3 μM) in Krebs-Ringer bicarbonate buffer containing 5.6 mM glucose for 20 min at 37°C as previously described [15–17]. Insulin-releasing effects were also assessed using buffer supplemented with 1.4 and 16.7mm glucose concentrations and with established modulators of insulin release as previously described [15–17]. In a second set of experiments, islets from NIH Swiss mice, isolated by collagenase digestion [18, 19], were incubated with a range of concentrations of esculentin-2CHa or its analogues (0.1 nM– 1 μM) for 1 h in Krebs-Ringer bicarbonate (KRB) buffer supplemented with 1.4, 5.6 or 16.7 mM glucose. Following test incubations, aliquots of buffer were retrieved and stored at -20°C for measurement of insulin by radioimmunoassay [20].

high fat fed mice [4] = assay: Acute in vivo glucose tolerance and insulin release; design: species or system mouse
Description: (§2) Male National Institutes of Health (NIH) Swiss mice (Harlan Ltd, UK) were housed separately in an air-conditioned room (22 ± 2°C) with relative humidity of 51 ± 5% and a 12-hour light: 12-hour dark cycle and maintained on a high fat diet containing 45% fat, 20% protein and 35% carbohydrate (total energy 19.5 kJ/g, Dietex International Ltd, Witham, UK) for 120 days. Mice maintained on standard rodent diet containing 10% fat, 30% protein and 60% carbohydrates (total energy 12.99 kJ/g) were used as controls. Both groups of animals were allowed food and water ad libitum. All animal experiments were carried out in accordance with the UK Animals (Scientific Procedures) Act 1986 and EU Directive 2010/63EU for animal experiments. The study was approved by University of Ulster Research Ethics Committee.
For acute in vivo studies, overnight fasted, high fat fed mice (n = 8) received an intraperitoneal injection of glucose alone (18 mmol/kg body weight) or in combination with esculentin-2CHa or its analogues (75 nmol/kg body weight). This peptide dose was selected on the basis of a pilot study that examined acute effects of different doses of esculentin-2CHa on glucose tolerance in lean mice. Blood samples were collected as described previously before injection and at times indicated in the Figures for the measurement of plasma glucose and insulin concentrations.
(§3) Pancreatic tissues were homogenized in 20 mM Tris-HCl, 150 mM NaCl, 1 mM EDTA, 1 mM EGTA and 0.5% Triton X 100; pH 7.5 as previously described. Blood samples (approximately 150 μl), collected from the cut tip of the tail vein of unanesthetized mice at intervals indicated in the Figures were used for blood glucose measurements and determination of plasma insulin as previously described. Blood glucose was measured using a hand-held Ascencia Contour meter (Bayer Healthcare, UK). Plasma and pancreatic insulin were determined by radioimmunoassay. Plasma and pancreatic glucagon contents were determined by ELISA using commercially available kit (Millipore, MA, USA). Plasma creatinine, alanine transaminase (ALT), aspartic acid transaminase (AST) and alkaline phosphatase (ALP) were measured using commercially available kits (Randox Laboratories, UK) as indicators of renal and liver function. Plasma triglyceride and cholesterol concentrations were measured using an automated clinical chemistry analyser (I-lab 650, and reagents purchased from Instrumentation Laboratory (Warrington, UK). The assay kit for cholesterol was obtained from Randox Laboratories (Antrim, UK). Estimation of LDL cholesterol concentrations was achieved using the Friedewald equation as described previously.

BRIN-BD11 cells [5] = assay: Membrane potential, FLIPR membrane assay kit; format: cell-based, rat; details: 1 μM peptide, 5 min; mean ± SEM, n = 8
Description: as §1

[6] = tested on: islets from NIH Swiss mice; assay: In vitro insulin release from isolated mouse islets; format: cell-based; details: 16.7 mM glucose
Description: as §4

high fat fed mice [7] = assay: Longer-term (28 day) in vivo study; design: species or system mouse; Reduction of pancreatic glucagon / Reduction of plasma glucagon / Reduction of total islet area / Reduction of beta cell area / Reduction of alpha cell area: concentration or dose not given beside the values
Description: as §2
High-fat fed mice with clearly manifested features of obesity and hyperglycaemia received twice daily injections of either saline vehicle (0.9% (w/v) (high fat fed controls) or [L28K]esculentin-2CHa (75 nmol/kg body weight) for 28 days. This peptide was chosen based on its potent in vitro and acute in vivo actions. Mice (n = 8) fed standard rodent diet and injected with saline were used as lean controls. Energy intake, bodyweight, non-fasting blood glucose and plasma insulin concentrations were monitored every 72 h throughout the duration of the study. At the end of the 28 day treatment period, glucose tolerance (18 mmol/kg body weight, intraperitoneal or oral, overnight fasted) and insulin sensitivity (25 U/kg body weight) were assessed as previously described. Indirect calorimetry and energy expenditure in treated and control mice were measured using the Comprehensive Laboratory Animal Monitoring System (CLAMS) metabolic chambers (Columbus Instruments, Columbus, OH, USA). Total body lean and fat mass, bone mineral density and bone mineral content were also measured using DXA scanning (Piximus Densitometer, USA). Improvement in beta cell function in [L28K]esculentin-2CHa-treated and control mice were evaluated from the insulin secretory responses of islets isolated from these animals to established insulin secretagogues and incretin hormones (16.7 mM glucose, 1 μM GLP-1, 1 μM GIP, 10 mM alanine, 10 mM arginine and 30 mM KCl). Changes in islet morphology were assessed using pancreatic tissues excised from mice treated with [L28K]esculentin-2CHa or saline for 28 days as previously described.
as §3

[8] = ip glucose 18 mmol/kg with peptide 75 nmol/kg, AUC 0-60 min, mean ± SEM, n = 8
[9] = peptide 75 nmol/kg ip with glucose 18 mmol/kg
[10] = 75 nmol/kg twice daily, 28 days
[11] = after 28 days treatment, ip glucose 18 mmol/kg
[12] = after 28 days treatment, oral glucose 18 mmol/kg

“GFSSIFRGVAKFASKGLGKDLAKLGVDKVACKISKQC (disulfide 31-37 (inferred)) [[L28K]Esculentin-2CHa, substituted analogue of esculentin-2CHa chosen for 28 day study]” was tested, and the “Intracellular Ca2+ (AUC, x 10^2 RFU)” value (BRIN-BD11 cells [1]) was 7.28±0.94 x 10^2 RFU, the “LDH release (% of control)” value (BRIN-BD11 cells [2]) was 101.8±1.5 % of control and the “Stimulatory effect on insulin release at 3 μM compared with native peptide” value ([3]; 3 μM) was “greater”. The “BRIN-BD11 cells (Threshold concentration)” value ([3]; minimum concentration producing a significant increase in rate of insulin release, 20 min, 37°C, n = 8) was 10 pM, the “Plasma glucose (AUC)” value (high fat fed mice [4]; [8]) was 327.61±36.87 ^, Δ mmol/l.min and the “Plasma insulin (AUC)” value (high fat fed mice [4]; [8]) was 262.81±30.56 ^,ΔΔΔ ng/ml.min. The “Decrease of plasma glucose AUC versus glucose alone” value (high fat fed mice [4]; [9]) was 52%, the “Stimulation of insulin response relative to that with esculentin-2CHa” value (high fat fed mice [4]; [9]) was 2.8 fold and the “Membrane potential (AUC, x 10^3 RFU)” value (BRIN-BD11 cells [5]) was 7.78±0.22 x 10^3 RFU. The “Stimulation of insulin release from islets, fold of basal” value ([6]; 1 μM, 1 h) was 3.4 fold, the “Mouse islets (Threshold concentration)” value ([6]; insulin release, 1 h incubation, n = 8) was 1 nM and the Body weight (high fat fed mice [7]; [10]) was “did not affect”. The Food intake (high fat fed mice [7]; [10]) was “did not affect”, the “Increase in non-fasting plasma insulin versus saline-treated controls” value (high fat fed mice [7]; [10]) was 42% and the “Reduction in non-fasting plasma glucose versus saline-treated controls” value (high fat fed mice [7]; [10]) was 25%. For the same sequence, the Adverse effects (high fat fed mice [7]; 28 days treatment) was “no adverse effects were observed”, the “Decrease in plasma creatinine” value (high fat fed mice [7]; 28 days treatment) was 40% and the “Number of islets per mm^2 of pancreas” value (high fat fed mice [7]; 28 days treatment) was “did not affect”. The “Plasma HDL cholesterol” value (high fat fed mice [7]; 28 days treatment) was “no effect”, the Plasma triglycerides (high fat fed mice [7]; 28 days treatment) was “decreased” and the “Reduction of alpha cell area” value (high fat fed mice [7]; 28 days treatment) was 48%. For the same sequence, the “Reduction of beta cell area” value (high fat fed mice [7]; 28 days treatment) was 43%, the “Reduction of total islet area” value (high fat fed mice [7]; 28 days treatment) was 44% and the “Total pancreatic insulin content (greater in high fat fed mice)” value (high fat fed mice [7]; 28 days treatment) was “reversed”. For the same sequence, the “O2 consumption, CO2 production, energy expenditure and respiratory exchange ratio” value (high fat fed mice [7]; 28 days treatment, CLAMS metabolic chambers) was “not affected”, the Bone area (high fat fed mice [7]; 28 days treatment, DXA) was “reversed the loss” and the “Reduction of pancreatic glucagon” value (high fat fed mice [7]; 28 days treatment, ELISA) was 20%. The “Reduction of plasma glucagon” value (high fat fed mice [7]; 28 days treatment, ELISA) was 35%, the Insulin sensitivity (high fat fed mice [7]; after 28 days treatment, insulin 25 U/kg ip) was “no significant effect” and the “Improvement of glucose AUC 0–60 min, intraperitoneal glucose tolerance” value (high fat fed mice [7]; [11]) was 20%. The “Improvement of insulin AUC 0–60 min, intraperitoneal glucose” value (high fat fed mice [7]; [11]) was 66%, the “Improvement of glycaemic excursion following oral glucose” value (high fat fed mice [7]; [12]) was 23% and the “Improvement of insulin response following oral glucose” value (high fat fed mice [7]; [12]) was 68%. The “Insulin-secretory responses of isolated islets to secretagogues” value (high fat fed mice [7]; islets from mice treated 28 days, glucose, GLP-1, GIP, alanine, arginine, KCl) was “restored”.
